Assay results published in publication PMC6115767, “Soybean- and Lupin-Derived Peptides Inhibit DPP-IV Activity on In Situ Human Intestinal Caco-2 Cells and Ex Vivo Human Serum” (Nutrients, 2018).
No end group written: not given here.

What was measured:
[1] = cited from earlier work
[2] = target: T1, DPP-IV (in situ, human intestinal Caco-2 cells) (Homo sapiens, UniProt P27487)
Procedure: (§1) Caco-2 cells, obtained from INSERM (Paris, France), were routinely sub-cultured at 50% density [22] and maintained at 37 °C in a 90% air/10% CO2 atmosphere in DMEM containing 25 mM of glucose, 3.7 g/L of NaHCO3, 4 mM of stable L-glutamine, 1% nonessential amino acids, 100 U/L of penicillin, and 100 µg/L of streptomycin (complete medium), supplemented with 10% heat-inactivated fetal bovine serum (FBS; Hyclone Laboratories, Logan, UT, USA).
(§2) The medium was regularly changed three times a week. Caco-2 cells DPP-IV activity was assayed on days 2, 4, and 6 from seeding.

[3] = target: T2, circulating DPP-IV in human serum (Homo sapiens, UniProt P27487); assay: Ex vivo circulating DPP-IV activity assay in human serum (Gly-Pro-AMC); format: biochemical; settings: 24 h at 37 °C, 50 µM Gly-Pro-AMC final, three experiments in triplicate
T2 construct: a soluble form of DPP-IV lacking the cytoplasmic and transmembrane domains is present in plasma and other body fluids; from tissue; host or cells: human serum from a healthy volunteer
Procedure: Human serum samples prepared from freshly collected venous blood from a healthy volunteer were aliquoted 40 µL/well in black 96-well plates and 10 µL of each inhibitor were added for 24 h at 37 °C. […] Subsequently, 50 µL of 100 µM Gly-Pro-AMC was added to each well to achieve a final substrate concentration of 50 µM.

[4] = system: intestinal Caco-2 cells; settings: cited from earlier work
Procedure: Considered all of these aspects, using live intestinal Caco-2 cells, experiments were performed to investigate in detail the ability of Lup1 and Soy1 to inhibit DPP-IV activity, in the presence of BB proteolytic activity.

[5] = target: T1, DPP-IV (in situ, human intestinal Caco-2 cells); assay: In situ DPP-IV activity assay on 2-, 4- and 6-day Caco-2 cells (Gly-Pro-AMC); settings: for reduction of in situ DPP-IV activity vs control: 2-day Caco-2 cells, 100 µM peptide, 1 h pre-incubation, 50 µM Gly-Pro-AMC, 10 min, three experiments in triplicate
Procedure: as §1, §2

T2 sequence (P27487 39-766 limits assumed): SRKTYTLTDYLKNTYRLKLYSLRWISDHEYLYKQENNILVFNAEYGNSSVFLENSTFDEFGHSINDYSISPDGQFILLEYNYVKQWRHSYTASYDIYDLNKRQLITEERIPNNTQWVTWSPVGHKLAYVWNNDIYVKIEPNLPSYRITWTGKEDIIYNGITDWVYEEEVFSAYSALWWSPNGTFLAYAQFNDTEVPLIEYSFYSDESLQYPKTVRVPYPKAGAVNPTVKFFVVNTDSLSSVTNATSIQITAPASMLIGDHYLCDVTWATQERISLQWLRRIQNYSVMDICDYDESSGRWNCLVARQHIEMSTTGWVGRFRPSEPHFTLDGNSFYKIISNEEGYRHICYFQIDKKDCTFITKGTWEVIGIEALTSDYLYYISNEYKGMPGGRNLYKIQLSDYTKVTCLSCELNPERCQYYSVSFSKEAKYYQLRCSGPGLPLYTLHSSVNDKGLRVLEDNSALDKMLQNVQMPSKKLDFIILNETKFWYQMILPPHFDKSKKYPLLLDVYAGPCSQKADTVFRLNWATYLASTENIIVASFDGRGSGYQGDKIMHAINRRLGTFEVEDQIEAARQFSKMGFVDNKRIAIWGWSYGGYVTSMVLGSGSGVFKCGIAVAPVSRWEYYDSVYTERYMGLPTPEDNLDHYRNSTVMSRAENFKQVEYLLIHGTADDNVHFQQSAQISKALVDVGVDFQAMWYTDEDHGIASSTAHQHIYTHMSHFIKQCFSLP
T1 sequence (P27487 whole entry): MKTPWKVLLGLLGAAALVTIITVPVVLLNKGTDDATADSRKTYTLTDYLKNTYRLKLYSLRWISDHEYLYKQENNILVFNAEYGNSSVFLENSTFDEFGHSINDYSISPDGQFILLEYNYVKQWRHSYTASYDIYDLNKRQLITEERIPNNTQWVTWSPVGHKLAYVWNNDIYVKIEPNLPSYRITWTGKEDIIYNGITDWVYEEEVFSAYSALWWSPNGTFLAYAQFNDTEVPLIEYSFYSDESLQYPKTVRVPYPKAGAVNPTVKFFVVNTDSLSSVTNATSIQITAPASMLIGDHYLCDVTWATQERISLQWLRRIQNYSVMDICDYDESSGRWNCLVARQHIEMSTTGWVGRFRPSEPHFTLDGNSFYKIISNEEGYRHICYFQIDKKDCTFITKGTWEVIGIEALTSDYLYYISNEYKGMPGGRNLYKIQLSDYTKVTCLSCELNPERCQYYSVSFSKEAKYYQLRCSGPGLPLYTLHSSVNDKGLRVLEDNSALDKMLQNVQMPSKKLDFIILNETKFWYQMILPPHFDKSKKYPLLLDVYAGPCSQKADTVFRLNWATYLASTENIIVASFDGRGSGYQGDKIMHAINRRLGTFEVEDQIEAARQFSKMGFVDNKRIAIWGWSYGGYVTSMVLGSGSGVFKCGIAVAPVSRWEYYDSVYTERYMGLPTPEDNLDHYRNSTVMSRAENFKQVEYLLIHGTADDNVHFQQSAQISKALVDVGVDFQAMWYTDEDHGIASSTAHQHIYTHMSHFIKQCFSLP

| in situ IC50 compared with in vitro IC50 [2] [fold] | decrease of circulating DPP-IV activity vs control ([3]; 100 µM peptide) [%] | decrease of circulating DPP-IV activity vs control ([3]; 300 µM peptide) [%] | IC50 [5] [µM] | reduction of in situ DPP-IV activity vs control [5] [%] | Molecule | absorption in vivo (in words) [1] | breakdown fragments formed ([4]; Caco-2 cells, already after 2 h of incubation) | susceptibility to intestinal endopeptidases (in words) ([4]; Caco-2 cells) | stability to apical proteases (in words) ([4]; differentiated Caco-2 cells, apical proteases, after 4 h of incubation) | absorption by Caco-2 cells (in words) ([4]; differentiated intestinal Caco-2 cells) | in situ IC50 compared with in vitro IC50 (in words) ([5]; 2-day Caco-2 IC50 vs in vitro purified enzyme IC50) |
| --- | --- | --- | --- | --- | --- | --- | --- | --- | --- | --- | --- |
|  |  |  |  |  | N[C@@H](CC(=O)N1CCn2c(nnc2C(F)(F)F)C1)Cc1cc(F)c(F)cc1F [sitagliptin, Sitagliptin] | rapidly absorbed |  |  |  |  |  |
| 2 | 27.7 | 35.0 | 223 | 50 | IAVPTGVA [Soy1] |  | IAVPT and AVPTGVA | susceptible to the action of intestinal endopeptidases |  |  |  |
|  | 18.1 | 24.7 | 207 | 50 | LTFPGSAED [Lup1] |  |  |  | not degraded | absorbed intact | in agreement with that obtained with the in vitro assay |
